Ten molecules from ChEMBL document CHEMBL1629502, “Labeling study of avidin by modular method for affinity labeling (MoAL)” (Bioorg Med Chem Lett, 2010) can be followed below.

Activity calls are given as the source filed them. The calls are words filed in the database; no cut-off is given here.

Experiment [1] is described as follows: Binding affinity to avidin at 80 uM by UV-vis spectroscopy.
Experiment [2] is described as follows: Binding affinity to avidin by UV-vis spectroscopy.
A short description of experiment [3]: Binding affinity to avidin at 1.6 mM by UV-vis spectroscopy.

Consider `CN(C)CC(=O)OCCCCCCNC(=O)CCCCCNC(=O)CCCC[C@@H]1SC[C@@H]2NC(=O)N[C@@H]21`, for which the result in experiment [1] was Active.

For the molecule `CN(C)CC(=O)OCCCCCCCCCCNC(=O)CCCCCNC(=O)CCCC[C@@H]1SC[C@@H]2NC(=O)N[C@@H]21`, in experiment [1], the result was Active.

Regarding `CN(C)CC(=O)OCCCCCCCCNC(=O)CCCCCNC(=O)CCCC[C@@H]1SC[C@@H]2NC(=O)N[C@@H]21`, the outcome in experiment [1] was Active.

Take `CN(C)S(=O)(=O)c1ccc(NCCN)c2nonc12`: the outcome in experiment [2] was Active.

On to `NCCNC(=O)COc1cc(S(=O)(=O)O)c2ccc3c(S(=O)(=O)O)cc(S(=O)(=O)O)c4ccc1c2c43`, for which the outcome in experiment [3] was Active.

Turning to `NCc1ccc(Br)cc1`, the outcome in experiment [2] was Active.

For `COc1nc(Cl)nc(OC)n1`, the result in experiment [3] was Active.

With `CN(C)CC(=O)OCCCCNC(=O)CCCCCNC(=O)CCCC[C@@H]1SC[C@@H]2NC(=O)N[C@@H]21`, the result in experiment [1] was Active.

Molecule `O=C(O)CCCC[C@@H]1SC[C@@H]2NC(=O)N[C@@H]21` showed a Ka in experiment [2] of 1e+15 M⁻¹.

On to `CN(C)CC(=O)OCCCCCNC(=O)CCCCCNC(=O)CCCC[C@@H]1SC[C@@H]2NC(=O)N[C@@H]21`, for which the result in experiment [1] was Active.
